Here are results for one compound from patent publication US6875438B2, “Preparations for topical administration of substances having antiandrogenic activity” (Aventis Pharma Deutschland GmbH, priority 2002, dated 2005).

Data set [1] has as its system cells of the dermal papilla of occipital scalp. Description: Hydrolysis of compound 2 to compound 1 in cultivated dermal papilla cells (HPLC of media extracts). It counts as in vitro ADME, human. Conditions: skin cells, in particular cells of the dermal papilla. The procedure:
Monolayer cultures of juvenile prepuce keratinocytes and fibroblasts and of cells of the dermal papilla of occipital scalp were incubated with compound 2 in a concentration of 10^−5 M under standard conditions (5% CO2, 37° C.) for 24 h. The cell culture medium was then extracted with chloroform. The organic phase was evaporated and the residue was taken up in acetonitrile and investigated by HPLC analysis for its content of compounds 1 and 2.

Data set [2] in a line: Microscopic investigations for crystallization of active ingredient in the preparation. It counts as physicochemical. Conditions: lipid nanoparticle preparations.

As to `CCCCCCCCCCCCCC(=O)OCCCCN1C(=O)N(c2ccc(C#N)c(C(F)(F)F)c2)C(=O)C1(C)C` [compound 2], the “Conversion of compound 2 into compound 1 (in words)” value in data set [1] was “significant conversion”. The “Crystallization of compound 2 in the preparation (microscopy)” value in data set [2] was “no indications of crystallization”.
